“And” between values parts separate entries of the source, which are not always exact repeats. Equal values may be shown once. Inconclusive results and toxic doses are left out. The calls were made as follows: active = survival T/C of 150% or more; inactive = T/C below 125% in these data.
Test system: CD2F1 mice, L1210 leukemia ip, survival T/C
Assay: NCI In Vivo Anticancer Drug Screen. Data for tumor model L1210 Leukemia (intraperitoneal) in CD2F1 (CDF1) mice
Details: higher = longer survival
Summary of the method: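 Antitumor effect is scored in animals hosting a serially transplanted tumor. Values compare compound-dosed animals against vehicle-only controls as a simple quotient.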

[1] = endpoint: mean survival time, dose: 25.0 mg/kg/injection, schedule: Q01DX009 (ip), vehicle: Klucel (hydroxypropylcellulose) (HPC)
[2] = endpoint: mean survival time, dose: 50.0 mg/kg/injection, schedule: Q01DX009 (ip), vehicle: Klucel (hydroxypropylcellulose) (HPC)
[3] = endpoint: mean survival time, dose: 100.0 mg/kg/injection, schedule: Q04DX003 (ip), vehicle: saline with Tween-80
[4] = endpoint: mean survival time, dose: 100.0 mg/kg/injection, schedule: Q01DX001 (ip), vehicle: saline with Tween-80
[5] = endpoint: mean survival time, dose: 200.0 mg/kg/injection, schedule: Q01DX001 (ip), vehicle: saline with Tween-80
[6] = endpoint: mean survival time, dose: 400.0 mg/kg/injection, schedule: Q01DX001 (ip), vehicle: saline with Tween-80
[7] = endpoint: mean survival time, dose: 50.0 mg/kg/injection, schedule: Q04DX002 (ip), vehicle: saline with Tween-80
[8] = endpoint: mean survival time, dose: 100.0 mg/kg/injection, schedule: Q04DX002 (ip), vehicle: saline with Tween-80
[9] = endpoint: mean survival time, dose: 75.0 mg/kg/injection, schedule: Q01DX001 (ip), vehicle: saline
[10] = endpoint: mean survival time, dose: 12.5 mg/kg/injection, schedule: Q01DX009 (ip), vehicle: saline with Tween-80
[11] = endpoint: mean survival time, dose: 25.0 mg/kg/injection, schedule: Q01DX009 (ip), vehicle: saline with Tween-80
[12] = endpoint: mean survival time, dose: 50.0 mg/kg/injection, schedule: Q01DX009 (ip), vehicle: saline with Tween-80
[13] = endpoint: mean survival time, dose: 100.0 mg/kg/injection, schedule: Q01DX009 (ip), vehicle: saline with Tween-80
[14] = endpoint: mean survival time, dose: 200.0 mg/kg/injection, schedule: Q01DX009 (ip), vehicle: saline with Tween-80
[15] = endpoint: mean survival time, dose: 25.0 mg/kg/injection, schedule: Q04DX003 (ip), vehicle: saline with Tween-80
[16] = endpoint: mean survival time, dose: 50.0 mg/kg/injection, schedule: Q04DX003 (ip), vehicle: saline with Tween-80
[17] = endpoint: mean survival time, dose: 75.0 mg/kg/injection, schedule: Q01DX001 (ip), vehicle: other
[18] = endpoint: mean survival time, dose: 100.0 mg/kg/injection, schedule: Q04DX003 (ip), vehicle: saline
[19] = endpoint: mean survival time, dose: 200.0 mg/kg/injection, schedule: Q04DX003 (ip), vehicle: saline
[20] = endpoint: mean survival time, dose: 12.5 mg/kg/injection, schedule: Q04DX003 (ip), vehicle: saline with Tween-80

Measured: T/C

O=C(Nc1ccc2c(c1)Cc1cccc(NC(=O)C(Cl)Cl)c1-2)C(Cl)Cl
inactive: endpoint: mean survival time, dose: 12.5 mg/kg/injection, schedule: Q01DX009 (ip), vehicle: Klucel (hydroxypropylcellulose) (HPC) 90 % of control | [1] 93 % of control | [2] 87 % of control

CS(=O)(=O)OCCN(CCOS(C)(=O)=O)c1ccc(N=O)c(Cl)c1
inactive: [3] 124 % of control

CN1C(=O)NC(c2cccc(N(CCCl)CCCl)c2)C1=O (centres undefined)
inactive: endpoint: mean survival time, dose: 25.0 mg/kg/injection, schedule: Q01DX001 (ip), vehicle: Klucel (hydroxypropylcellulose) (HPC) 116 % of control and 108 % of control | endpoint: mean survival time, dose: 50.0 mg/kg/injection, schedule: Q01DX001 (ip), vehicle: Klucel (hydroxypropylcellulose) (HPC) 120 % of control | endpoint: mean survival time, dose: 100.0 mg/kg/injection, schedule: Q01DX001 (ip), vehicle: Klucel (hydroxypropylcellulose) (HPC) 121 % of control

Cc1cn(C2CC3[O][Sn]([CH3])([CH3])[O]CC3O2)c(=O)[nH]c1=O (centres undefined)
inactive: endpoint: mean survival time, dose: 12.5 mg/kg/injection, schedule: Q01DX005 (ip), vehicle: other 105 % of control | endpoint: mean survival time, dose: 25.0 mg/kg/injection, schedule: Q01DX005 (ip), vehicle: other 108 % of control | endpoint: mean survival time, dose: 50.0 mg/kg/injection, schedule: Q01DX005 (ip), vehicle: other 103 % of control

ClC1(Cl)Cc2ccccc21
inactive: endpoint: mean survival time, dose: 266.0 mg/kg/injection, schedule: Q04DX003 (ip), vehicle: saline sonified 96 % of control | endpoint: mean survival time, dose: 400.0 mg/kg/injection, schedule: Q04DX003 (ip), vehicle: saline sonified 88 % of control | endpoint: mean survival time, dose: 600.0 mg/kg/injection, schedule: Q04DX003 (ip), vehicle: saline sonified 100 % of control | endpoint: median survival time, dose: 50.0 mg/kg/injection, schedule: Q01DX005 (ip), vehicle: saline with Tween-80 102 % of control | endpoint: median survival time, dose: 100.0 mg/kg/injection, schedule: Q01DX005 (ip), vehicle: saline with Tween-80 113 % of control | endpoint: median survival time, dose: 200.0 mg/kg/injection, schedule: Q01DX005 (ip), vehicle: saline with Tween-80 102 % of control

CCC1(C)CCC2=C(CCC3C(C)(C(=O)OC)CCCC23C)C1 (centres undefined)
inactive: [4] 93 % of control | [5] 89 % of control | [6] 89 % of control

Nc1ncnc2c1nc(-c1ccccc1)n2C1OC(CO)C(O)C1O (centres undefined)
inactive: endpoint: median survival time, dose: 25.0 mg/kg/injection, schedule: Q01DX005 (ip), vehicle: distilled water + Tween-80 100 % of control | endpoint: median survival time, dose: 50.0 mg/kg/injection, schedule: Q01DX005 (ip), vehicle: distilled water + Tween-80 97 % of control | endpoint: median survival time, dose: 100.0 mg/kg/injection, schedule: Q01DX005 (ip), vehicle: distilled water + Tween-80 100 % of control | endpoint: median survival time, dose: 200.0 mg/kg/injection, schedule: Q01DX005 (ip), vehicle: distilled water + Tween-80 100 % of control

Cc1cc([N+](=O)[O-])c(S(N)(=O)=O)c([N+](=O)[O-])c1
inactive: [1] 98 % of control | [2] 95 % of control

C(=Nc1ccc2ccccc2c1)c1ccccc1
inactive: [7] 91 % of control | [8] 95 % of control | endpoint: mean survival time, dose: 200.0 mg/kg/injection, schedule: Q04DX002 (ip), vehicle: saline with Tween-80 95 % of control | endpoint: mean survival time, dose: 400.0 mg/kg/injection, schedule: Q04DX002 (ip), vehicle: saline with Tween-80 98 % of control

COc1cc2ccc(-c3cc(C(=O)O)c4ccccc4n3)cc2cc1OC
inactive: [9] 93 % of control | endpoint: mean survival time, dose: 150.0 mg/kg/injection, schedule: Q01DX001 (ip), vehicle: saline 93 % of control

C[Si](C)(C)Oc1cc(N=NNC2=CC(=O)c3ccccc3C2=O)c(O)c2ccccc12
inactive: [10] 95 % of control | [11] 98 % of control | [12] 95 % of control

CN1CCCC(OC(=O)C(c2ccccc2)C2(O)CCCC2)C1 (centres undefined)
inactive: [9] 98 % of control

CC(=O)Nc1ccc(/C=N/NC(=O)CNC(=O)Nc2ccc(Cl)c(Cl)c2)cc1
inactive: [13] 95 % of control | [14] 100 % of control | endpoint: mean survival time, dose: 400.0 mg/kg/injection, schedule: Q01DX009 (ip), vehicle: saline with Tween-80 109 % of control

CCC(C(=O)O)C(=O)O.[NH-]CC[NH-].[Pt+2]
inactive: [15] 101 % of control | [16] 104 % of control | [3] 112 % of control

O=NC1C(=O)C2CC1CC2C(=O)OC(=O)C1CC2CC1C(=O)C2N=O (centres undefined)
inactive: [17] 108 % of control | endpoint: mean survival time, dose: 150.0 mg/kg/injection, schedule: Q01DX001 (ip), vehicle: other 108 % of control

c1ccc(OP(Oc2ccccc2)Oc2ccccc2)cc1
inactive: endpoint: mean survival time, dose: 50.0 mg/kg/injection, schedule: Q04DX003 (ip), vehicle: saline 98 % of control | [18] 104 % of control | [19] 96 % of control

NCCCN1CCOCC1
inactive: endpoint: mean survival time, dose: 100.0 mg/kg/injection, schedule: Q01DX001 (ip), vehicle: saline 98 % of control | endpoint: mean survival time, dose: 200.0 mg/kg/injection, schedule: Q01DX001 (ip), vehicle: saline 101 % of control | endpoint: mean survival time, dose: 400.0 mg/kg/injection, schedule: Q01DX001 (ip), vehicle: saline 95 % of control

O=S(=O)(Cl)c1cccc2cc3ccccc3cc12
inactive: [18] 109 % of control | [19] 97 % of control | endpoint: mean survival time, dose: 400.0 mg/kg/injection, schedule: Q04DX003 (ip), vehicle: saline 103 % of control

FC(F)(F)/C([S-])=C(/[S-])C(F)(F)F.N#[O+].[Mn].[c-]1[c-][c-][cH-][c-]1
inactive: [17] 103 % of control

c1cc2c(cc1NC1=NCCO1)CCC2
inactive: endpoint: mean survival time, dose: 6.25 mg/kg/injection, schedule: Q04DX003 (ip), vehicle: saline with Tween-80 103 % of control | [20] 108 % of control | [15] 111 % of control

CCCCSP(=O)(CCl)SCCCC
inactive: endpoint: mean survival time, dose: 25.0 mg/kg/injection, schedule: Q04DX002 (ip), vehicle: saline with Tween-80 93 % of control | [7] 97 % of control | [8] 93 % of control

O=P1(c2ccccc2)NCC(Br)CO1 (centres undefined)
inactive: endpoint: mean survival time, dose: 31.3 mg/kg/injection, schedule: Q01DX001 (ip), vehicle: other 95 % of control | endpoint: mean survival time, dose: 62.5 mg/kg/injection, schedule: Q01DX001 (ip), vehicle: other 95 % of control | endpoint: mean survival time, dose: 125.0 mg/kg/injection, schedule: Q01DX001 (ip), vehicle: other 100 % of control | endpoint: mean survival time, dose: 250.0 mg/kg/injection, schedule: Q01DX001 (ip), vehicle: other 100 % of control | endpoint: mean survival time, dose: 500.0 mg/kg/injection, schedule: Q01DX001 (ip), vehicle: other 95 % of control

Nc1nc(N)c2c(n1)NCN(CCc1ccc(Cl)cc1)C2
inactive: endpoint: mean survival time, dose: 0.75 mg/kg/injection, schedule: Q01DX009 (ip), vehicle: distilled water + Tween-80 100 % of control | endpoint: mean survival time, dose: 1.5 mg/kg/injection, schedule: Q01DX009 (ip), vehicle: distilled water + Tween-80 102 % of control | endpoint: mean survival time, dose: 3.0 mg/kg/injection, schedule: Q01DX009 (ip), vehicle: distilled water + Tween-80 102 % of control | endpoint: mean survival time, dose: 6.0 mg/kg/injection, schedule: Q01DX009 (ip), vehicle: distilled water + Tween-80 100 % of control | endpoint: mean survival time, dose: 12.0 mg/kg/injection, schedule: Q01DX009 (ip), vehicle: distilled water + Tween-80 100 % of control | endpoint: mean survival time, dose: 24.0 mg/kg/injection, schedule: Q01DX009 (ip), vehicle: distilled water + Tween-80 98 % of control

Cc1c(-c2ccc3c(c2)OCO3)no[n+]1[O-]
inactive: [3] 91 % of control | endpoint: mean survival time, dose: 200.0 mg/kg/injection, schedule: Q04DX003 (ip), vehicle: saline with Tween-80 98 % of control | endpoint: mean survival time, dose: 400.0 mg/kg/injection, schedule: Q04DX003 (ip), vehicle: saline with Tween-80 88 % of control

CC(=O)c1ccc(N=NNc2ccc(C(C)=O)cc2)cc1
inactive: [4] 103 % of control | [13] 96 % of control | [5] 95 % of control | [14] 95 % of control | [6] 95 % of control

COc1ccc2c(c1)CCC1C2=CC(=O)/C1=C\[O-].COc1ccc2c(c1)CCC1C2=CC(=O)/C1=C\[O-].[Cu+2] (centres undefined)
inactive: [10] 92 % of control | [20] 93 % of control | [11] 95 % of control | [15] 93 % of control | [12] 94 % of control | [16] 96 % of control

Reference: PubChem BioAssay AID256 (DTP/NCI, 2004)
